In article PMC7567858, “Structure of inhibitor-bound mammalian complex I” (Nature Communications, 2020):

How the values were obtained:
[1] = target: T1, complex I (NADH:ubiquinone oxidoreductase), bovine (Bos taurus, UniProt P03887+P17694+P42026); experiment: NADH oxidation ([…]-380 nm) in complex I-AOX proteoliposomes; format: biochemical; conditions: Q10 in membrane phase (nmol per mg phospholipid), no piericidin, AOX recycling, 200 uM NADH, pH 7.5, 32 °C
T1 construct: gene NDUFS2; native intact 45-subunit complex I from heart; in proteoliposomes with Q10 and AOX, or detergent-solubilised (EPR sample); with NADH-ubiquinone oxidoreductase chain 2; NADH-ubiquinone oxidoreductase chain 3; NADH-ubiquinone oxidoreductase chain 4; NADH-ubiquinone oxidoreductase chain 4L; NADH-ubiquinone oxidoreductase chain 5; NADH-ubiquinone oxidoreductase chain 6; NADH-ubiquinone oxidoreductase 75 kDa subunit, mitochondrial; NADH dehydrogenase [ubiquinone] flavoprotein 1, mitochondrial; NADH dehydrogenase [ubiquinone] flavoprotein 2, mitochondrial; NADH dehydrogenase [ubiquinone] iron-sulfur protein 3, mitochondrial; NADH dehydrogenase [ubiquinone] iron-sulfur protein 8, mitochondrial

[2] = target: T2, mouse complex I (Mus musculus, UniProt P03888+Q91WD5+Q9DC70); experiment: cryo-EM structure, […] Å; conditions: ubiquinone-binding site, active state, cluster N2 reduced; NDUFS2 His59 and Tyr108
T2 construct: gene Ndufs2; native intact 45-subunit complex I purified from heart mitochondria in DDM; with NADH-ubiquinone oxidoreductase chain 2; NADH-ubiquinone oxidoreductase chain 3; NADH-ubiquinone oxidoreductase chain 4; NADH-ubiquinone oxidoreductase chain 4L; NADH-ubiquinone oxidoreductase chain 5; NADH-ubiquinone oxidoreductase chain 6; NADH-ubiquinone oxidoreductase 75 kDa subunit, mitochondrial; NADH dehydrogenase [ubiquinone] flavoprotein 1, mitochondrial; NADH dehydrogenase [ubiquinone] flavoprotein 2, mitochondrial; NADH dehydrogenase [ubiquinone] iron-sulfur protein 3, mitochondrial; NADH dehydrogenase [ubiquinone] iron-sulfur protein 8, mitochondrial

[3] = target: T1, complex I (NADH:ubiquinone oxidoreductase), bovine; experiment: global kinetic fit of NADH oxidation in proteoliposomes; format: biochemical; conditions: two-site competitive model; second inhibitor binds more tightly; Q10 varied, AOX recycling, 200 uM NADH, pH 7.5, 32 °C
[4] = target: T3, NDUFA10 (in mouse complex I) (Mus musculus, UniProt Q99LC3); experiment: cryo-EM structure, […] Å; format: binding; conditions: nucleotide bound to NDUFA10, adenine stacks on Phe134
T3 construct: supernumerary subunit within native intact complex I from mouse heart mitochondria
T3 sequence (Q99LC3 36-355): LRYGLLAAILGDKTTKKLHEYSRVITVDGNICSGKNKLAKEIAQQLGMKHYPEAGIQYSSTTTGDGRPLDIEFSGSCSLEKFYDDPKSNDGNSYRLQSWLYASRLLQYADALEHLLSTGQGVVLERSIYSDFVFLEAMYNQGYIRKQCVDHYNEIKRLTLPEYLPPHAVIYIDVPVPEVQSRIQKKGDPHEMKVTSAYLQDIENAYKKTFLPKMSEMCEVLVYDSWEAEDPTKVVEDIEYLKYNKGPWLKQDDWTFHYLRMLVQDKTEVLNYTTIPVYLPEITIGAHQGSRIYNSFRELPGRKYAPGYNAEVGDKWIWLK

T1 sequence (P17694 34-463): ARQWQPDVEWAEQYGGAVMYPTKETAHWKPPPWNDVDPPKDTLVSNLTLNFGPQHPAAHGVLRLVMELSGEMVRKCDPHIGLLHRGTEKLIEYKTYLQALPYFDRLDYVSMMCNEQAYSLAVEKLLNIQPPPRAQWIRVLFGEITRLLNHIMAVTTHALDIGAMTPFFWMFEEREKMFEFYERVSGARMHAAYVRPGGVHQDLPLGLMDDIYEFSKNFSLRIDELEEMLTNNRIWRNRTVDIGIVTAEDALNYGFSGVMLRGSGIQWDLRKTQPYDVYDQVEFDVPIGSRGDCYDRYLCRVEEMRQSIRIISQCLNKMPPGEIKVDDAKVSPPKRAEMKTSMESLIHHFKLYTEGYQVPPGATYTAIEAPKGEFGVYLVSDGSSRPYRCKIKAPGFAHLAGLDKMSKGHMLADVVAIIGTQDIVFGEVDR
T1 sequence (P42026 38-216): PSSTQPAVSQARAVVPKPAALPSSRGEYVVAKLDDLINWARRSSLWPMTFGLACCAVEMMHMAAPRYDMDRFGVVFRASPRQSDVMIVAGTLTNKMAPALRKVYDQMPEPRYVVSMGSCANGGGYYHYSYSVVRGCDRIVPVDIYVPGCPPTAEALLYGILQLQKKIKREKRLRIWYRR
T1 sequence (P03887 whole entry): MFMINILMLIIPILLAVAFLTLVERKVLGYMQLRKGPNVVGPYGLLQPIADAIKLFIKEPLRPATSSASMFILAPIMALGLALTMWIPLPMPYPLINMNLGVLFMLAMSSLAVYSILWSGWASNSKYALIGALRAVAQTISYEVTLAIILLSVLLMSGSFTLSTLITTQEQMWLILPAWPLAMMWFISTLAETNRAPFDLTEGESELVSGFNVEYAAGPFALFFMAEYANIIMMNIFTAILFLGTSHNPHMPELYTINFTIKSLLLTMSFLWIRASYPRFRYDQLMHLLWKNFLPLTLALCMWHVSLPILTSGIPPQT
T2 sequence (Q91WD5 34-463): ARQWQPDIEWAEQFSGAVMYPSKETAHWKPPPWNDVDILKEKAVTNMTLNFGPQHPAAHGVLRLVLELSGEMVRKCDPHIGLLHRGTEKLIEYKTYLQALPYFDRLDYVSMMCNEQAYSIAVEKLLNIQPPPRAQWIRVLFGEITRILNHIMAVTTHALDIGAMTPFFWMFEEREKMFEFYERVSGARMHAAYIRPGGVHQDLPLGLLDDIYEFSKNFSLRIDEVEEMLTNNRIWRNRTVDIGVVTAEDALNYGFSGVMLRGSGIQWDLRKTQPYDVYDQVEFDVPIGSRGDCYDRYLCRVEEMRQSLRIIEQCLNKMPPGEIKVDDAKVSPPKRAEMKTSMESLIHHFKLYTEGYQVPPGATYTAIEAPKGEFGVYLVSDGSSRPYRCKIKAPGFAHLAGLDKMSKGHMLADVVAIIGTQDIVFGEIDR
T2 sequence (Q9DC70 36-224): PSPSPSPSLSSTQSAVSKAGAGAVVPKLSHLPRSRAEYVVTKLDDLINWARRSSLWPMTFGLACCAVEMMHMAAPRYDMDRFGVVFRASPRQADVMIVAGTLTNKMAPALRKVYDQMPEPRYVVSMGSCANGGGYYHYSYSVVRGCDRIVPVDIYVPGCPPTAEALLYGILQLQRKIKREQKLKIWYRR
T2 sequence (P03888 whole entry): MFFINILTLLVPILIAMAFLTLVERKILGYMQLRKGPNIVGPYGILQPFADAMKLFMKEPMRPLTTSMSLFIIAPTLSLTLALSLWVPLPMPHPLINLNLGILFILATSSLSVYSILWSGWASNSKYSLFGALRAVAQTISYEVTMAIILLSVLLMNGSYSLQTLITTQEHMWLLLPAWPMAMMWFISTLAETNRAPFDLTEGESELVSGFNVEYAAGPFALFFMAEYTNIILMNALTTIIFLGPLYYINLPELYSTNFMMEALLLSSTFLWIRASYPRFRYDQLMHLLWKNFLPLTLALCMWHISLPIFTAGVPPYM

COC1=C(OC)C(=O)C(C/C=C(\C)CC/C=C(\C)CC/C=C(\C)CC/C=C(\C)CC/C=C(\C)CC/C=C(\C)CC/C=C(\C)CC/C=C(\C)CC/C=C(\C)CCC=C(C)C)=C(C)C1=O [Q10]
KM,app [1]: modelled by a series of Michaelis–Menten curves for their Q10 dependence

C/C=C(\C)[C@H](O)[C@H](C)/C=C(C)/C=C/C/C(C)=C/Cc1nc(OC)c(OC)c(O)c1C [piericidin A]
cryo-EM structure, 3.0 Å [2]: The piericidin headgroup binds adjacent to NDUFS2 His59 and Tyr108 | KI [3]: the second inhibitor binds substantially more tightly than the first

Nc1ncnc2c1ncn2[C@@H]1O[C@H](COP(=O)(O)OP(=O)(O)OP(=O)(O)O)[C@@H](O)[C@H]1O [ATP]
cryo-EM structure, 3.0 Å [4]: replacement of the ADP bound to NDUFA10 with ATP
